In experiment [1] the test system is Kuramochi cells labeled with mApple-H2B. The experiment in a line: IncuCyte Cell Proliferation Assay. It is filed as cell-based. Put shortly: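 GI50 came from dose-response fits of cell-count fold change between 0 and 72 h, normalized to DMSO controls. Counts were fluorescent nuclei from live-cell images over a 10-point, ½ log series starting at 20 μM.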
A further experiment relates to Kuramochi cells. The experiment in a line: BrdU Cell Proliferation Assay. To be noted: read-out: BrdU - KURAMOCHI.1: IC50. It is filed as cell-based. The method, boiled down: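 Signal is 450 nm absorbance from a peroxidase anti-BrdU ELISA after a 1-hour BrdU label, background-subtracted and normalized to DMSO-treated wells. Kuramochi cells (2,000 per well) had been exposed to compound for 4 days. Dosing used a 10-point dose response in 3-fold steps.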

Some results are limits rather than exact numbers.

Turning to `CNC(=O)C(NC(=O)[C@@H]1CN(C(=O)c2cncs2)CC12CN(C(=O)[C@H]1CC1(C)C)C2)c1nc(C2CCCCC2)co1` (stereo partly shown) [I-425], the IC50 (as a rule, the point on the concentration scale where inhibition reaches its midpoint) in experiment [1] (72 h) is over 20 µM; with Kuramochi cells it was over 10 µM.
Taken in the same sequence, the figures for `COC[C@H]1CCCN(C(=O)[C@@H](NC(=O)[C@@H]2CN(C(=O)c3cncs3)CC23CN(C(=O)[C@H]2CC2(C)C)C3)[C@@H](C)OC(C)C2CCC(F)(F)CC2)C1` (stereo partly shown) [I-360] were 0.5 to 5 µM and 0.5 to 5 µM.
For `CC1(C)C[C@@H]1C(=O)N1CC2(CN(C(=O)c3cnn(Cc4ccccc4)c3)C[C@H]2C(=O)NC[C@H]2CC[C@H](C)CC2)C1` [I-382], the IC50 is over 20 µM in experiment [1] (72 h) and over 10 µM in the experiment on Kuramochi cells.
`CNC(=O)[C@@H](NC(=O)[C@@H]1CN(C(=O)c2nncs2)CC12CN(C(=O)[C@H]1CC1(C)C)C2)[C@@H](C)OCC1CCCCC1` [I-246]: the IC50 lay in the range of 5 to 20 µM in experiment [1] (72 h) and 0.5 to 5 µM in the experiment with Kuramochi cells.
Turning to `CNC(=O)[C@@H](NC(=O)[C@@H]1CN(C(=O)c2cncs2)CC12CN(C(=O)[C@H]1CC1(C)C)C2)C1(OCC2CCCCC2)CC1` [I-401], the IC50 (in experiment [1] (72 h); in the experiment with Kuramochi cells) was 0.5 to 5 µM throughout.
With `CNC(=O)[C@@H](NC(=O)[C@@H]1CN(C(=O)c2cnn(Cc3ccccc3)c2)CC12CN(C(=O)[C@H]1CC1(C)C)C2)[C@@H](C)OCC(C)C` [I-137A], the IC50 is over 20 µM in experiment [1] (72 h) and over 10 µM with Kuramochi cells.
For `CC1(C)C[C@@H]1C(=O)N1CC2(CN(C(=O)c3cncs3)C[C@H]2C(=O)NC(c2cccc(C3CCCCC3)n2)P(C)(C)=O)C1` (stereo partly shown) [I-494], the IC50 was over 20 µM in experiment [1] (72 h) and over 10 µM in the experiment with Kuramochi cells.
`Cc1cc(C(=O)N2CC(C(=O)N[C@H](C(=O)N3CCCCC3)[C@@H](C)OCC3CCCCC3)C3(C2)CN(C(=O)[C@H]2CC2(C)C)C3)sn1` (stereo partly shown) [I-311]: the IC50 (in experiment [1] (72 h); in the experiment with Kuramochi cells) was at most 0.5 µM throughout.
Regarding `C[C@@H](OCC1CCCCC1)[C@@H](COC(F)(F)F)NC(=O)[C@@H]1CN(C(=O)c2cnn(Cc3ccccc3)c2)CC12CN(C(=O)[C@H]1CC1(C)C)C2` [I-309], the IC50 (in experiment [1] (72 h); with Kuramochi cells) was 0.5 to 5 µM each time.
On to `Cc1ccc(CNC(=O)[C@@H]2CN(C(=O)c3cnn(Cc4ccccc4)c3)CC23CN(C(=O)[C@H]2CC2(C)C)C3)cn1` [I-364], for which the results for the IC50 (in experiment [1] (72 h); with Kuramochi cells) were 5 to 20 µM and over 10 µM, respectively.
Turning to `COC[C@H]1CCCN(C(=O)[C@@H](NC(=O)[C@@H]2CN(C(=O)c3cnn(Cc4ccccc4)c3)CC23CN(C(=O)[C@H]2CC2(C)C)C3)[C@@H](C)OC)C1` [I-283], the IC50 in experiment [1] (72 h) was over 20 µM; in the experiment on Kuramochi cells, over 10 µM.
Regarding `C[C@@H](OCC1CCCCC1)[C@H](NC(=O)[C@@H]1CN(C(=O)c2cnn(CC(F)(F)F)c2)CC12CN(C(=O)[C@H]1CC1(C)C)C2)C(=O)N1CCCCC1` [I-132], the IC50 (in experiment [1] (72 h); in the experiment with Kuramochi cells) was 0.5 to 5 µM each time.
`CNC(=O)[C@@H](NC(=O)[C@@H]1CN(C(=O)c2cncs2)CC12CN(C(=O)[C@H]1CC1(C)C)C2)[C@H](O)CC1CCCCC1` [I-379]: the IC50 in experiment [1] (72 h) is over 20 µM; with Kuramochi cells, over 10 µM.
As for `C[C@@H](OCC1CCC(F)(F)CC1)[C@H](NC(=O)[C@@H]1CN(C(=O)c2cncs2)CC12CN(C(=O)[C@H]1CC1(C)C)C2)C(=O)N1CCC2(CC1)CC2` [I-380], the IC50 (in experiment [1] (72 h); with Kuramochi cells) was at most 0.5 µM throughout.
For the molecule `C[C@@H](OCC1CCC(F)(F)CC1)[C@H](NC(=O)[C@@H]1CN(C(=O)c2cncs2)CC12CN(C(=O)[C@H]1CC1(C)C)C2)C(=O)N1CCC(C(F)(F)F)CC1` [I-398], the IC50 (in experiment [1] (72 h); in the experiment with Kuramochi cells) was at most 0.5 µM in each case.
Turning to `CN1CC[C@@H](NC(=O)[C@@H]2CN(C(=O)c3cnn(Cc4ccccc4)c3)CC23CN(C(=O)[C@H]2CC2(C)C)C3)C1=O` [I-258], the IC50 in experiment [1] (72 h) is over 20 µM; with Kuramochi cells, over 10 µM.
As to `C[C@@H](OCc1ccccc1)[C@H](NC(=O)C1CN(C(=O)c2cnn(Cc3ccccc3)c2)CC12CN(C(=O)[C@H]1CC1(C)C)C2)C(=O)N1CCCCC1` (stereo partly drawn) [I-97, 6-(1-benzyl-1H-pyrazole-4-carbonyl)-N-((2S,3R)-3-(benzyloxy)-1-oxo-1-(piperidin-1-yl)butan-2-yl)-2-((S)-2,2-dimethylcyclopropanecarbonyl)-2,6-diazaspiro[3.4]octane-8-carboxamide], the IC50 (in experiment [1] (72 h); in the experiment on Kuramochi cells) was 0.5 to 5 µM throughout.
Consider `CNC(=O)[C@@H](NC(=O)[C@@H]1CN(C(=O)c2cnn(Cc3ccccc3)c2)CC12CN(C(=O)[C@H]1CC1(C)C)C2)[C@@H](C)OCC1CCCCCC1` [I-166A], for which the IC50 (in experiment [1] (72 h); in the experiment on Kuramochi cells) was at most 0.5 µM each time.
As to `CC1(C)C[C@@H]1C(=O)N1CC2(CN(C(=O)c3cnn(Cc4ccccc4)c3)C[C@H]2C(=O)N[C@@H]2CCN(c3ccccc3)C2)C1` [I-207], the IC50 was 5 to 20 µM in experiment [1] (72 h) and at most 0.5 µM with Kuramochi cells.
Take `C[C@@H](OCC1CCC(F)(F)CC1)[C@H](NC(=O)[C@@H]1CN(C(=O)c2cncs2)CC12CN(C(=O)[C@H]1CC1(C)C)C2)C(=O)N1CCC(O)CC1` [I-383]: the IC50 was in the range of 0.5 to 5 µM in experiment [1] (72 h) and 5 to 10 µM in the experiment with Kuramochi cells.
Take `CNC(=O)[C@@H](NC(=O)[C@H]1CN(C(=O)c2cnc(C)s2)CC12CN(C(=O)[C@H]1CC1(C)C)C2)[C@@H](C)OCC1CCCCC1` [I-156B]: the values for the IC50 (in experiment [1] (72 h); in the experiment on Kuramochi cells) were over 20 µM and over 10 µM, respectively.
With `COC[C@H]1CCCN(C(=O)[C@@H](NC(=O)[C@@H]2CN(C(=O)c3cncs3)CC23CN(C(=O)[C@H]2CC2(C)C)C3)[C@@H](C)OCc2ccc(Cl)cc2F)C1` [I-317], the IC50 (in experiment [1] (72 h); in the experiment on Kuramochi cells) was 0.5 to 5 µM in each case.
Regarding `CC1(C)C[C@@H]1C(=O)N1CC2(CN(C(=O)c3cncs3)C[C@H]2C(=O)NC(c2cccc(C3CCCCC3)n2)C2COCCO2)C1` (stereo partly shown) [I-496], the IC50 in experiment [1] (72 h) was 5 to 20 µM; in the experiment on Kuramochi cells it was over 10 µM.
For `CNC(=O)C(NC(=O)[C@@H]1CN(C(=O)c2cn[nH]c2)CC12CN(C(=O)[C@H]1CC1(C)C)C2)C(O)Cc1ccccc1` (stereo partly shown) [I-298], the IC50 in experiment [1] (72 h) is over 20 µM; in the experiment on Kuramochi cells, over 10 µM.
Taken in the same sequence, the figures for `CNC(=O)[C@@H](NC(=O)[C@@H]1CN(C(=O)c2cnn(Cc3ccccc3)c2)CC12CN(C(=O)[C@H]1CC1(C)C)C2)[C@@H](C)OCc1cccc(O)c1` [I-262] were over 20 µM and over 10 µM.
For `CNC(=O)[C@@H](NC(=O)[C@@H]1CN(C(=O)c2cnn(Cc3ccccc3)c2)CC12CN(C(=O)[C@H]1CC1(C)C)C2)[C@@H](C)NCC1CCCCC1` [I-269, (S)-6-(1-benzyl-1H-pyrazole-4-carbonyl)-N-((2S,3R)-3-((cyclohexylmethyl)amino)-1-(methylamino)-1-oxobutan-2-yl)-2-((S)-2,2-dimethylcyclopropane-1-carbonyl)-2,6-diazaspiro[3.4]octane-8-carboxamide], the results for the IC50 (in experiment [1] (72 h); in the experiment on Kuramochi cells) were 5 to 20 µM and over 10 µM, respectively.
Taken in the same sequence, the figures for `CNC(=O)[C@@H](NC(=O)[C@@H]1CN(Cc2cncs2)CC12CN(C(=O)[C@H]1CC1(C)C)C2)[C@@H](C)OCc1ccccc1` [I-51A] were 5 to 20 µM and 5 to 10 µM.
Consider `C[C@@H](OCC1CCC(F)(F)CC1)[C@H](NC(=O)[C@@H]1CN(C(=O)c2cncs2)CC12CN(C(=O)[C@H]1CC1(C)C)C2)C(=O)N1CCC(C)(C)CC1` [I-386], for which the IC50 (in experiment [1] (72 h); in the experiment on Kuramochi cells) was at most 0.5 µM throughout.
`C[C@@H](OCC1CCCCC1)[C@H](NC(=O)[C@@H]1CN(C(=O)c2cncs2)CC12CN(C(=O)[C@H]1CC1(C)C)C2)C(=O)N1CCC(c2cnc[nH]2)CC1` [I-406]: the IC50 (in experiment [1] (72 h); with Kuramochi cells) was 0.5 to 5 µM in each case.
Turning to `CNC(=O)[C@@H](NC(=O)[C@@H]1CN(C(=O)c2cncs2)CC12CN(CC1CCCC1)C2)[C@@H](C)OCC12CCC(CC1)OC2` [I-344, (S)—N-((2S,3R)-3-(2-oxabicyclo[2.2.2]octan-4-ylmethoxy)-1-(methylamino)-1-oxobutan-2-yl)-2-(cyclopentylmethyl)-6-(thiazole-5-carbonyl)-2,6-diazaspiro[3.4]octane-8-carboxamide], the IC50 in experiment [1] (72 h) was over 20 µM; in the experiment with Kuramochi cells it was over 10 µM.
For `CNC(=O)[C@@H](NC(=O)[C@@H]1CN(C(=O)c2cnn(Cc3ccccc3)c2)CC12CN(C(=O)C(C)(C)C)C2)[C@@H](C)OCC1CCCCC1` [I-174A], the IC50 (in experiment [1] (72 h); in the experiment with Kuramochi cells) was 0.5 to 5 µM each time.
Regarding `COC[C@H]1CCCN(C(=O)[C@@H](NC(=O)[C@H]2CN(C(=O)c3cncs3)CC23CN(C(=O)[C@H]2CC2(C)C)C3)[C@@H](C)OCC2CCCCC2)C1` [I-196B], the IC50 in experiment [1] (72 h) was 0.5 to 5 µM; with Kuramochi cells, at most 0.5 µM.
As for `CNC(=O)[C@@H](NC(=O)[C@@H]1CN(C(=O)c2cncs2)CC12CN(C(=O)[C@H]1CC1(C)C)C2)[C@@H](C)OC[C@H]1CC[C@@H](C)CC1` [I-354], the IC50 in experiment [1] (72 h) is at most 0.5 µM; in the experiment on Kuramochi cells, 0.5 to 5 µM.
Turning to `C[C@@H](OC1(C2CCCCC2)CC1)[C@H](NC(=O)[C@@H]1CN(C(=O)c2cncs2)CC12CN(C(=O)[C@H]1CC1(C)C)C2)C(=O)N1CCCCC1` [I-357], the results for the IC50 (in experiment [1] (72 h); in the experiment on Kuramochi cells) were 5 to 20 µM and 5 to 10 µM, respectively.
For `Cc1ccc(CNC(=O)[C@@H]2CN(C(=O)c3cncs3)CC23CN(C(=O)[C@H]2CC2(C)C)C3)nn1` [I-378], the values for the IC50 (in experiment [1] (72 h); with Kuramochi cells) were over 20 µM and over 10 µM, respectively.
For `COC[C@H]1CCCN(C(=O)[C@@H](NC(=O)[C@@H]2CN(C(=O)c3cncs3)CC23CN(C(=O)[C@H]2CC2(C)C)C3)[C@@H](C)O[C@H](C)C2CCCCC2)C1` [I-466], the IC50 (in experiment [1] (72 hours); in the experiment on Kuramochi cells) was 0.5 to 5 µM throughout.
`CNC(=O)[C@@H](NC(=O)[C@@H]1CN(C(=O)c2cncs2)CC12CN(C(=O)[C@H]1CC1(C)C)C2)[C@@H](C)OC1C2CC3CC(C2)CC1C3` (stereo partly shown) [I-463]: the IC50 (in experiment [1] (72 h); with Kuramochi cells) was 0.5 to 5 µM in each case.
On to `CNC(=O)[C@@H](NC(=O)[C@@H]1CN(C(=O)c2cnn(Cc3ccccc3)c2)CC12CN(C(=O)[C@H]1CC1(C)C)C2)[C@@H](C)OCC(C)(C)C` [I-130A], for which the IC50 in experiment [1] (72 h) lay in the range of 5 to 20 µM; with Kuramochi cells, 5 to 10 µM.

The values are drawn from patent US12065445B2, “CDK2 inhibitors and methods of using the same” (Cedilla Therapeutics, Inc., priority 2021, dated 2024).
